In US7208517B1, “Endothelin antagonists” (Abbott Labortories, priority 1994, dated 2007):
Like-named read-outs stand apart in the source and are kept apart here.

Columns and labels:
[1] = tested on: ET-1-induced phosphatidylinositol hydrolysis in MMQ cells; assay: Determination of ET-1-induced phosphatidylinositol (PI) hydrolysis in MMQ cells; type: cell-based, rat; conditions: 1 nM ET-1 challenge, read-out: IC50 (inhibition of ET-induced increase in PI turnover)
Procedure: MMQ cells (0.4×10^6 cells/mL) were labeled with 10 μCi/mL of [^3H]myo-inositol in RPMI for 16 hours. The cells were washed with PBS, then incubated with Buffer A containing protease inhibitors and 10 mM LiCl for 60 minutes. The cells were then incubated with test compounds for 5 minutes, and then challenged with 1 nM ET-1. ET-1 challenge was terminated by the addition of 1.5 mL of 1:2 (v/v) chloroform-methanol. Total inositol phosphates were extracted after adding chloroform and water to give final proportions of 1:1:0.9 (v/v/v) chloroform-methanol-water as described by Berridge (Biochem. J. 206 587–595 (1982)). The upper aqueous phase (1 mL) was retained and a small portion (100 μL) was counted. The rest of the aqueous sample was analyzed by batch chromatography using anion-exchange resin AG1-X8 (Bio-Rad). […] The results of the above study clearly indicate that the compounds act as functional ET antagonists.

human ETB receptor = target: T1, human ETB receptor (Homo sapiens, UniProt P24530); assay: ETA/ETB selectivity: (125I)ET-3 competition binding, CHO cells transfected with human ETB receptor (hET-B)
T1 construct: expressed in transfected cells; host or cells: CHO cells, permanently transfected
T1 sequence (P24530 27-442): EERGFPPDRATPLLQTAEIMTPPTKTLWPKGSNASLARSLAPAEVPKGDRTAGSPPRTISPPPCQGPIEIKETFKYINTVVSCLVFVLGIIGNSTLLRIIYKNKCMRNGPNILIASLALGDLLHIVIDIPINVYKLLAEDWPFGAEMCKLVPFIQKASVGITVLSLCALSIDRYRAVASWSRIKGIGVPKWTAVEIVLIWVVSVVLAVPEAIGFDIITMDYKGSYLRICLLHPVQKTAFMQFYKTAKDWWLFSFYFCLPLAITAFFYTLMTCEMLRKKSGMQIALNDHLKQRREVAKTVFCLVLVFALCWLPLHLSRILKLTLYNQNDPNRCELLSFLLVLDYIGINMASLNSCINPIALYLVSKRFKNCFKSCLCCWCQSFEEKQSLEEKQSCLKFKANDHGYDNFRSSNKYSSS
Procedure: MMQ cells, porcine cerebellar tissues (known to contain ETB receptors) and chinese hamster ovary cells (CHO) permanently transfected with the human ETA or ETB receptor were homogenized in 25 ml of 10 mM Hepes (pH 7.4) containing 0.25 M sucrose and a protease inhibitor [50 mM EDTA, 0.1 mM PMSF, 5 μg/ml Pepstatin A, and 0.025% Bacitracin] using a micro ultrasonic cell disrupter. The mixture was centrifuged at 1000×g for 10 min. The supernatant was collected and centrifuged at 60,000×g for 60 min. The precipitate was resuspended in 20 mM Tris, pH 7.4 containing protease inhibitor and centrifuged again. The final membrane pellet was resuspended in 20 mM Tris, pH 7.4 containing protease inhibitors and stored at −80° C. until used. Protein content was determined by the Bio-Rad dye-binding protein assay.
Binding assays were performed in 96-well microtiter plates pretreated with 0.1% BSA. Membranes prepared from cells were diluted 100 fold in Buffer B (20 mM Tris, 100 mM NaCl, 10 mM MgCl2, pH 7.4, with 0.2% BSA, 0.1 mM PMSF, 5 μg/mL Pepstatin A, 0.025% bacitracin, and 50 mM EDTA) to a final concentration of 0.2 mg/mL of protein. In competition binding studies, membranes (0.02 mg) were incubated with 0.1 nM of (^125I)ET-1 (for ETA assay in MMQ or CHO cells transfected with human ETA receptor) or (^125I)ET-3 (for ETB assay in porcine cerebellum or CHO cells transfected with human ETB receptor) in Buffer B (final volume: 0.2 mL) in the presence of increasing concentrations of the test compound for 3 hours at 25° C. After incubation, unbound ligands were separated from bound ligands by a vacuum filtration method using glass-fiber filter strips in PHD cell harvesters (Cambridge Technology, Inc., MA), washing the filter strips three times with saline (1 mL). Nonspecific binding was determined in the presence of 1 μM ET-1. IC50 values are calculated using an average of at least two separate determinations.

human ETA receptor = target: T2, human ETA receptor (Homo sapiens, UniProt P25101); assay: ETA/ETB selectivity: (125I)ET-1 competition binding, CHO cells transfected with human ETA receptor (hET-A)
T2 construct: expressed in transfected cells; host or cells: CHO cells, permanently transfected
T2 sequence (P25101 21-427): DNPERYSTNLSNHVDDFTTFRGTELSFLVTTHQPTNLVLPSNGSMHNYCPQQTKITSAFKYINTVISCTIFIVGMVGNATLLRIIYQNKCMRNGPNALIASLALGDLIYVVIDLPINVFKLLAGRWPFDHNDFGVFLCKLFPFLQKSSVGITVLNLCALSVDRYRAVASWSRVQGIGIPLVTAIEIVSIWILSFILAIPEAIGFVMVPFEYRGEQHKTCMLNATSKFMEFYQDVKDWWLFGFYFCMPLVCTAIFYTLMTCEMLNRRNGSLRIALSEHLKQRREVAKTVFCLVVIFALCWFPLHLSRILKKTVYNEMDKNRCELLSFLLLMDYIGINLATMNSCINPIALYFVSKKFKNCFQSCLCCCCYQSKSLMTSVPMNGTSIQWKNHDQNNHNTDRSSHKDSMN
Procedure: (§1) The mixture was centrifuged at 1000×g for 10 min. The supernatant was collected and centrifuged at 60,000×g for 60 min. The precipitate was resuspended in 20 mM Tris, pH 7.4 containing protease inhibitor and centrifuged again. The final membrane pellet was resuspended in 20 mM Tris, pH 7.4 containing protease inhibitors and stored at −80° C. until used. Protein content was determined by the Bio-Rad dye-binding protein assay.
(§2) Binding assays were performed in 96-well microtiter plates pretreated with 0.1% BSA. […] After incubation, unbound ligands were separated from bound ligands by a vacuum filtration method using glass-fiber filter strips in PHD cell harvesters (Cambridge Technology, Inc., MA), washing the filter strips three times with saline (1 mL). Nonspecific binding was determined in the presence of 1 μM ET-1. IC50 values are calculated using an average of at least two separate determinations.

[2] = target: T3, ETA receptor in MMQ cells (rET-A) (Rattus norvegicus, UniProt P26684); assay: ETA/ETB selectivity: (125I)ET-1 competition binding, ETA assay in MMQ cell membranes (rET-A); conditions: MMQ cell membranes; for IC50: 0.1 nM (125I)ET-1, read-out: rET-A IC50
T3 construct: endogenous in cells; host or cells: MMQ rat pituitary cells (membranes)
T3 sequence (P26684 21-426): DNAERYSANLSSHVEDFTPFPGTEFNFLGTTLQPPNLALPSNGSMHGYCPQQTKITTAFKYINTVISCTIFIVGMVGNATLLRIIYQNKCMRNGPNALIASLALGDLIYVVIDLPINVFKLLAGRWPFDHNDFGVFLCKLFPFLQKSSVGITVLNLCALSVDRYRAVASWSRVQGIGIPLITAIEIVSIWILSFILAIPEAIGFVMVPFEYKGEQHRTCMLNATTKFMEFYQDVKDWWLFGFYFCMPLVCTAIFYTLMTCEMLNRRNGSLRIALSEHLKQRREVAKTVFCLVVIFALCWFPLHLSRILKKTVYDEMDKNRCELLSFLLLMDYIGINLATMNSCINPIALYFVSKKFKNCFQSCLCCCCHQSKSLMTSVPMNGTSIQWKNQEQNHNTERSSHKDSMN
Procedure: as §1, §2

[3] = target: T4, ETB receptors of porcine cerebellar tissues (pET-B) (Sus scrofa, UniProt P35463); assay: ETA/ETB selectivity: (125I)ET-3 competition binding, ETB assay in porcine cerebellum membranes (pET-B); conditions: porcine cerebellum membranes; 0.1 nM (125I)ET-3; read-out: pET-B IC50
T4 construct: porcine cerebellar tissues (known to contain ETB receptors); from tissue; host or cells: porcine cerebellum (membranes)
T4 sequence (P35463 27-443): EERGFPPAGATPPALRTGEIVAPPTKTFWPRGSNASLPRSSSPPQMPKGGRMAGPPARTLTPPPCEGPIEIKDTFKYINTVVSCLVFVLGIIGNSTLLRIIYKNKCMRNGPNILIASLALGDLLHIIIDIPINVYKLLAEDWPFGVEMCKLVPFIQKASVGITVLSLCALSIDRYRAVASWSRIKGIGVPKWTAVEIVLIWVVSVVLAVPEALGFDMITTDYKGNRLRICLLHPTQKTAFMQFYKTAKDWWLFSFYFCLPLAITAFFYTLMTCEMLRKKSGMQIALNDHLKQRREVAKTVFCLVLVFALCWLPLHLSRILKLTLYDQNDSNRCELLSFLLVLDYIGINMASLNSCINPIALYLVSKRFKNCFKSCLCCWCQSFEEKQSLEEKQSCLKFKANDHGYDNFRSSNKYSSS
Procedure: as §1, §2

ETA Receptor = target: T5, ETA Receptor (Rattus norvegicus, UniProt P26684); assay: [125I]ET-1 binding to membranes from MMQ cells (ETA receptor binding assay, Table 4); conditions: test compound at 1 μM, 0.1 nM [125I]ET-1, MMQ cell membranes, 4 hours at 25° C.
T5 construct: endogenous in cells; host or cells: MMQ rat pituitary cells (membranes)
T5 sequence (P26684 21-426): T3 sequence (P26684 21-426)

[4] = Determination of plasma protein binding (ultrafiltration, HPLC); type: in vitro ADME; design: fraction unbound at 1 h: dose or concentration left out as unconfirmed; conditions: fresh plasma, 1 hour at room temperature, read-out: percent of bound compound (plasma protein binding, % PB) (converted)
Procedure: A stock solution of the test compound in 50% ethanol (2 mg/mL) was diluted 10× into PBS. A 0.4 mL sample of this secondary stock solution was added to 3.6 mL of fresh plasma, and incubated at room temperature for 1 hour. A 1 mL sample of this incubation mixture was transferred to a Centrifree ultrafiltration tube. The sample was centrifuged in a fixed-bucket rotor for approximately 2 min and the filtrate was discarded. The sample was centrifuged for another 15–30 min. A 100 μL sample of the ultrafiltrate was transfered to a micro HPLC sample vial containing […] of HPLC mobile phase and mixed thoroughly. A 50 μL sample was injected and the concentration of drug in the ultrafiltrate was determined by HPLC analysis compared against a standard sample prepared identically in the absence of plasma. Ultrafiltrate concentrations are calculated from a calibration curve. Protein binding is calculated according to the equation: % PB=[1−(Cu/Ci)]*100%
where Cu is the ultrafiltrate concentration and Ci is the initial plasma concentration.

Compound | IC50 [3] [nM] | IC50 [1] [nM] | % Inhibition of ETA at 1 μM (ETA Receptor) [%] | also measured
CC=CC(C)(C)CC1C(C(=O)O)C(c2cc(OC)c3c(c2)OCO3)CN1CC(=O)N(CCCC)CCCC (stereo not drawn) [Example 553] | 42400 | – | – | IC50 ([1]; Rattus norvegicus): 0.4 nM; IC50 (human ETB receptor): 39500 nM; IC50 (human ETA receptor): 0.29 nM; inhibition at 1 µM ([2]; 1 μM test compound): 100%; IC50 [2]: 0.26 nM
COc1ccc(C2C(C(=O)O)C(c3ccc4c(c3)OCO4)CN2CC(=O)NCC(C)C)cc1 (stereo not drawn) [Example 18, trans,trans-2-(4-Methoxyphenyl)-4-(1,3-benzodioxol-5-yl)-1-(isobutylaminocarbonylmethyl)-pyrrolidine-3-carboxylic acid] | – | 9 | 97.3 | –
COc1ccc(C2C(C(=O)O)C(c3ccc4c(c3)OCO4)CN2CC(=O)NC2CCCC2)cc1 (stereo not drawn) [Example 19, trans,trans-2-(4-Methoxyphenyl)-4-(1,3-benzodioxol-5-yl)-1-(cyclopentylaminocarbonylmethyl)-pyrrolidine-3-carboxylic acid] | – | 24 | 90.3 | –
C=CCNC(=O)CN1CC(c2ccc3c(c2)OCO3)C(C(=O)O)C1c1ccc(OC)cc1 (stereo not drawn) [Example 14, trans,trans-2-(4-Methoxyphenyl)-4-(1,3-benzodioxol-5-yl)-1-(allylaminocarbonylmethyl)-pyrrolidine-3-carboxylic acid] | – | 17 | 86.6 | –

The next lines start with results.

IC50 [3] [nM] | IC50 [1] [nM] | % Inhibition of ETA at 1 μM (ETA Receptor) [%] | Compound | also measured
– | 25 | 96.4 | CCCNC(=O)CN1CC(c2ccc3c(c2)OCO3)C(C(=O)O)C1c1ccc(OC)cc1 (stereo not drawn) [Example 1D, trans,trans-2-(4-Methoxyphenyl)-4-(1,3-benzodioxol-5-yl)-1-(propylaminocarbonylmethyl)-pyrrolidine-3-carboxylic acid] | –
– | 9 | 96.0 | CCCN(C)C(=O)CN1CC(c2ccc3c(c2)OCO3)C(C(=O)O)C1c1ccc(OC)cc1 (stereo not drawn) [Example 16, trans,trans-2-(4-Methoxyphenyl)-4-(1,3-benzodioxol-5-yl)-1-(N-(n-propyl)-N-methylaminocarbonylmethyl)-pyrrolidine-3-carboxylic acid] | –
3200 | – | – | CCCCN(C(=O)CN1CC(c2ccc3c(c2)OCO3)C(C(=O)O)C1c1ccc(OC)cc1)c1cccc(CN)c1 (stereo not drawn) [compound 532] | inhibition at 1 µM (ETA Receptor; read-out: % Inhibition of ETA at 1 μM): 100%; fraction unbound at 1 h [4]: 0.032; IC50 [2]: 5.1 nM
0.36 | – | – | CCCCCS(=O)(=O)N(CCC)CCN1C[C@H](c2ccc3c(c2)OCO3)[C@@H](C(=O)O)[C@@H]1c1ccc(OC)c(F)c1 [Example 534] | IC50 ([1]; Rattus norvegicus): 50 nM
– | 10 | 84.8 | CCCCNC(=O)CN1CC(c2ccc3c(c2)OCO3)C(C(=O)O)C1c1ccc(OC)cc1 (stereo not drawn) [Example 15, trans,trans-2-(4-Methoxyphenyl)-4-(1,3-benzodioxol-5-yl)-1-(n-butylaminocarbonylmethyl)-pyrrolidine-3-carboxylic acid] | –
